“And” between values parts separate entries of the source, which are not always exact repeats. Identical values can stand only once. Like-named read-outs stand apart in the source and are kept apart here.
Tests used:
[1] = Compound-associated cytotoxicity in latently infected cells (Cell Titer Glo); type: cell-based, human; details: human, latently infected (NL4.3-Luc) primary CD4+ T cells, continuous 48 hours, 50% cell viability reduction, three donors, mean ± SD
Description: (§1) Total peripheral blood mononuclear cells (PBMCs) were obtained from healthy HIV-negative donors by leukapheresis (AllCells, Inc, Emeryville, CA). Naive CD4+ T cells were purified by negative selection using EasySep magnetic beads (StemCells, Inc, Vancouver, Canada) and cultured in RPMI with 10% fetal bovine serum (FBS), penicillin/streptomycin, 1% nonessential amino acids (Life Technologies, Carlsbad, CA), 1% sodium pyruvate (Life Technologies) and 495 nM beta-mercaptoethanol (Sigma Aldrich, St. Louis, MO) in a 37°C, 5% CO2 incubator. Purified naive CD4+ T cells were activated by incubation with anti-CD3/CD28 magnetic Dynabeads (1 bead: 2 cells ratio, Life Technologies), 1 µg/ml anti-IL-4 (R&D Systems, Minneapolis, MN), 2 µg/ml anti-IL-12p70 antibodies (R&D Systems), and 10 ng/ml TGF-β (R&D Systems) for 3 days, [59]. Following the removal of anti-CD3/CD28 beads and antibodies, cells were maintained in 30 U/ml IL-2 (Life Technologies) for 2 days. Cells were then infected with NL4.3-Luc in the presence of 50 µg/ml DEAE for 3 hours. Cells were maintained in the continued presence of 30 U/ml IL-2 throughout the infection and subsequent rest period with culture medium with fresh IL-2 replaced every 2–3 days. Seven days post-infection, 20 µl of latently infected cells were dispensed into 384 well plates using a MicroFlo dispenser (Biotek Insturments, VT) at 10,000 cells/well containing 100 nl of compound solutions delivered by the Echo acoustic-based liquid dispenser (Labcyte, Sunnyvale, CA). After a 48-hour incubation, 16 µl/well BriteGlo (Promega, Madison, WI) was added and luminescence measured using the Envision plate reader (Perkin Elmer, Waltham, MA). Compound-associated cytotoxicity was determined in latently infected cells in parallel with the virus activation assay. Cells were incubated with compounds for 48 hours at 37°C, and cell viability was determined using Cell Titer Glo reagent (Promega).

[2] = system: HIV expressing a luciferase reporter gene (NL4-3-Luc) in latently infected primary CD4 T cells; assay: microbe, parasite or virus in culture; type: cell-based; details: continuous 48 hours, cells from three healthy donors, mean ± SD
Excerpt: To assess clinically tested HDACi for their ability to activate HIV from latency, we first employed a previously described in vitro HIV latency model, [30] with several modifications to increase the sensitivity of detection. The assay involves freshly isolated naïve CD4 T cells from healthy donors polarized to a Th0 phenotype, which mimics memory CD4 T cells. These Th0 cells are then infected with HIV expressing a luciferase reporter gene and cultured for an additional 7 to 10 days until a latent infection is established.
as §1, with “Naive CD4+ T cells were purified by negative selection using EasySep magnetic beads (StemCells, Inc, Vancouver, Canada) and cultured in RPMI with 10% fetal bovine serum (FBS), penicillin/streptomycin, 1% nonessential amino acids (Life Technologies, Carlsbad, CA), 1% sodium pyruvate (Life Technologies) and 495 nM beta-mercaptoethanol (Sigma Aldrich, St. Louis, MO) in a 37°C, 5% CO2 incubator.” left out

[3] = system: HIV; details: cited from earlier work
[4] = system: total class I and II HDAC enzyme activity in resting CD4 T cells; details: pulse RMD 4 hours, VOR 24 hours, PNB 24 hours, 6 to 48 hours
Description: Resting CD4 T cells obtained from HIV-infected patients on suppressive cART were incubated with serial dilutions of HDACi in 96-well plates at 10,000 cells/well for indicated time and then lysed by repeated freezing and thawing. Total cellular HDAC activity was measured using the HDAC-Glo I/II assay kit (Promega) according to the manufacturer's protocol.

[5] = system: latent HIV in resting CD4 T cells from HIV-infected patients on suppressive cART; type: cell-based; details: for HIV RNA avg: Figure 4, 25 nM PNB, one value per donor; for persistence of intracellular HIV RNA induction: pulse RMD 4 hours, VOR 24 hours, PNB 24 hours, 6 to 48 hours
Description: (§2) To examine the kinetics of HIV induction, we analyzed cell-associated viral RNA levels at 6, 12, 24, and 48 hours after treatment initiation.
(§3) Lysates were filtered through a Qiashredder (Qiagen).

[6] = system: latent HIV in memory CD4 T cells from HIV-infected patients on suppressive cART; assay: Ex vivo activation of HIV transcription, cell-associated HIV RNA, memory CD4 T cells; type: cell-based; details: memory CD4 T cells, 1 µM VOR
Description: as §2, §3

[7] = Cell culture medium protein binding by equilibrium dialysis, HPLC/mass spectrometry; type: in vitro ADME
[8] = system: latent HIV in resting CD4 T cells from HIV-infected patients on suppressive cART; assay: Ex vivo release of extracellular HIV RNA into culture supernatants, resting CD4 T cells; type: cell-based; details: resting CD4 T cells
Description: (§4) HIV-infected patients participating in the study were selected based on sustained plasma viral load suppression (<50 copies/ml for >12 months), CD4 counts (>350 cells/µL), and absence of co-infection with hepatitis B or C virus (Supplementary Table S1). Clinical laboratory results were reconfirmed 2 weeks before leukapheresis or blood draw. Leukapheresis was conducted for 3–4 hours, and samples were processed within 2 hours after collection. The leukapheresis product was diluted 1∶1 with PBS and layered over Ficoll for isolation of PBMCs. […] Resting CD4 T cells were isolated by first enriching total CD4 T cells (StemCell Technologies) and subsequently depleting HLA-DR-, CD25-, and CD69-positive cells via negative selection (Miltenyi Biotec, Auburn, CA).
(§5) To assess HIV activation by HDACi, up to 5 million CD4 T cells were plated in 24-well plates in 2.5 ml of media, supplemented with antiretrovirals (ARVs) (100 nM elvitegravir and 100–300 nM efavirenz) for the entire duration of culture incubation. HDACi were added at specified concentrations on day 0 and cells or culture supernatants were harvested for the analysis of HIV RNA at the indicated time points (6–48 hours or 6–7 days, respectively). For HDACi pulse treatment, cultures were washed twice using ARV-containing media at 4 or 24 hours after addition of HDACi and incubated with ARVs until harvest. To measure HIV RNA levels, 1 ml of culture supernatant was analyzed by a robotic COBAS AmpliPrep/TaqMan system (Roche Diagnostics, Indianapolis, IN), which extracts total nucleic acid and quantifies HIV RNA in copies per milliliter using the HIV-1 Test, v2.0 kit (Roche Diagnostics). For the measurement of cell-associated HIV RNA levels, cells were washed with PBS, counted, and lysed (Qiagen RLT buffer, 400 µl for every 2 million cells; Qiagen, Venlo, Netherlands). Lysates were filtered through a Qiashredder (Qiagen). Total RNA was prepared from the lysates (400 µl) using a robotic system (QIAsymphony, Qiagen) that incorporates a DNase I digestion step to eliminate cellular DNA. The resulting total RNA was eluted with 200 µl of buffer, diluted to 1 ml with nuclease-free water, and analyzed by COBAS using the HIV-1 Test v2.0 kit. Preparations of both cell-associated RNA and supernatant total nucleic acids were tested for potential contamination with HIV DNA and/or host DNA by performing the PCR amplification in the presence and absence of reverse transcriptase and by a detection of GAPDH-encoding host DNA sequence.
(§6) HIV RNA-induction experiments were conducted using 5 to 6 replicates for every experimental condition, including vehicle-treated controls. Fold induction in HIV RNA levels was calculated as a ratio of mean signals from compound-treated and vehicle (DMSO)-treated control samples from the same donor under identical conditions. […] For experiments using blood-derived resting CD4 T cells, culture supernatants from 3 replicate wells were combined and analyzed using the COBAS system.

[9] = system: HIV gag-pol RNA from resting CD4 T cells of a cART-suppressed patient; assay: Single-genome sequencing of HIV RNA in culture supernatants; type: cell-based; details: 2 µM SAHA, day 7
Excerpt: In parallel, we assessed the sequence diversity of HIV proviruses integrated in genomic DNA of resting CD4 T cells from the same culture.
Figure 8 Phylogenetic analysis of HIV sequences expressed ex vivo following the latency reversal. […] Single-genome sequencing was used to analyze patient HIV proviral DNA and plasma RNA at the initiation of treatment (day 0), together with the ex vivo induced HIV RNA in cell culture supernatants at the end of treatment (day 7). […] Identified HIV DNA and RNA sequences were aligned and the phylogenetic tree was constructed using Clustal W and MEAG5.
Single-genome sequencing of a portion of HIV-1 gag-pro-pol amplified from cell culture supernatants or cellular DNA extracts was performed as previously described [34]–[36]. Sequences were aligned using ClustalW and neighbor-joining phylogenetic analysis was performed using MEGA5. Trees were rooted on the subtype B consensus sequence (www.hiv.lanl.gov).

[10] = system: latently infected cells expressing Bcl2; design: method as in PMID 22406268; details: in vitro latency model with ectopic Bcl2; cited from earlier work
[11] = system: latent HIV in memory CD4 T cells from HIV-infected patients on suppressive cART
Description: We used HIV RNA in cell culture supernatants as a surrogate marker for virion release from treated cells. We assumed that extracellular virions would accumulate over the course of several days; therefore, the duration of culture was extended to 6 days to maximize assay sensitivity.
as §4, §5, §6

[12] = system: memory CD4 cells from HIV-infected patients; assay: Viability of primary memory CD4 cells (Cell TiterGlo, 6 days); type: cell-based, human; details: same incubation period (6 days), data not shown
Description: Cell viability was determined using a Cell TiterGlo reagent 6 days after the initiation of treatment and is expressed as a percentage of cell viability relative to control vehicle-treated memory CD4 cells from the same donors. The data represent mean +/− S.D. from three independent donors. (TIF) Click here for additional data file.

[13] = Human immunodeficiency virus 1, NL43, CD4+ T, 48 h

## CCN(CC)Cc1ccc2cc(COC(=O)Nc3ccc(C(=O)NO)cc3)ccc2c1 [Givinostat, givinostat]
[1]
  CC50 at 48 h: 24 µM
[2]; [13]
  EC50: 0.0958 ± 0.0203 µM

## Nc1ccccc1NC(=O)c1ccc(CNc2nccc(-c3cccnc3)n2)cc1 [Mocetinostat, mocetinostat]
[1]
  CC50 at 48 h: 10.1 µM
[2]; [13]
  EC50: 13.6 µM

## Cc1[nH]c2ccccc2c1CCNCc1ccc(/C=C/C(=O)NO)cc1 [PNB, panobinostat]
[3]; multiple doses of PNB, HIV-positive patients on suppressive cART
  HIV transcription and viremia in peripheral blood: induce intracellular HIV transcription and low-level viremia
[1]
  CC50 at 48 h: > 2.5 µM
[4]
  persistence of inhibition of cell-associated HDAC activity: transient and decreased after 24 hours of incubation
[5]; 6 hours
  HIV RNA avg: 4342 copies/mil cells and 2414 copies/mil cells
[5]; 24 hours
  HIV RNA avg: 11600 copies/mil cells and 5606 copies/mil cells
[5]; 48 hours
  HIV RNA avg: 1815 copies/mil cells and 783 copies/mil cells
[5]; resting CD4 T cells
  persistence of intracellular HIV RNA induction: transient and diminished after 24 hours
[2]; [13]
  EC50: 0.01 µM
[2]
  EC50: 0.0101 ± 0.001 µM

## CCCCc1nc2cc(/C=C/C(=O)NO)ccc2n1CCN(CC)CC [SB939, pracinostat]
[1]
  CC50 at 48 h: > 50 µM
[2]; [13]
  EC50: 0.212 ± 0.014 µM

## O=C(CCCCCCC(=O)Nc1ccccc1)NO [VOR, suberoylanilide hydroxamic acid]
[6]
  cell-associated HIV RNA at 48 hours: decreased by 48 hours to levels detected in vehicle-treated cells
[7]
  fraction unbound: 0.68
[8]; 0.5 µM VOR continuous 6 days
  extracellular HIV RNA versus untreated controls: did not increase extracellular HIV RNA significantly
[8]; 1 µM VOR continuous 6 days
  patient-derived cultures with measurable increase of extracellular HIV RNA: 3 of 7
[3]; multiple-dose (14-day) trial of VOR
  effect on total proviral DNA in peripheral CD4 T cells: no apparent effect
[3]; once-daily VOR for 14 consecutive days, 20 patients
  mean increase in cell-associated HIV RNA levels: ~3 fold
[3]; single 400 mg dose of VOR, 8 HIV-infected patients on cART
  mean increase in HIV RNA levels in resting CD4 T cells: 4.8 fold
[3]; single-dose and 14-day VOR studies
  increases in the level of plasma viremia: not observed
[1]
  CC50 at 48 h: > 25 µM
[9]
  sequences of HIV RNA recovered in culture supernatants: No HIV RNA sequences were recovered
[10]
  cell death after HIV activation: does not lead to cell death
[5]; resting CD4 T cells, 1 µM VOR
  cell-associated HIV RNA at 48 hours: decreased by 48 hours to levels detected in vehicle-treated cells
[5]; resting CD4 T cells, 1 µM VOR, 24-hour treatment
  increase in intracellular HIV RNA levels versus vehicle: rapid, but transient and less-pronounced activation
[5]; resting CD4 T cells
  persistence of intracellular HIV RNA induction: transient and diminished after 24 hours
[11]; memory CD4 T cells, 1 µM VOR continuous 6 days, two patients
  HIV RNA in culture supernatants: no significant increase
[11]; memory CD4 T cells, 0.5 and 1 µM VOR for 24 hours, day 6
  extracellular HIV RNA in culture supernatants: lack of HIV RNA release

## CN(CC[C@H](N)CC(=O)N[C@H]1C=C[C@H](n2ccc(N)nc2=O)O[C@@H]1C(=O)O)C(=N)N [blasticidine]
[12]
  cell death: > 80%
[11]; highly cytotoxic control, data not shown
  release of HIV RNA into cell culture supernatants: did not lead to release of detectable levels of HIV RNA
